This experiment relates to GDF8 signaling (p-SMAD-3 (Ser423/425)). The experiment is described as follows: AlphaScreen SureFire SMAD3 (p-Ser423/425) assay, GDF8-stimulated cells (GDF pSMAD). The experiment is classed as cell-based. As to conditions: Mus musculus, MPC-11, MPC11; GDF8-stimulated; p-SMAD3 AlphaScreen; read-out: GDF pSMAD (MPC11) (inhibition of GDF8 signaling).
Turning to `Cc1cc(-c2ncc(NCc3cccc(N4CCOCC4)c3)cc2-c2ccc3ncsc3c2)ccc1F` [compound 354, 5-(Benzo[d]thiazol-6-yl)-6-(4-fluoro-3-methylphenyl)-N-(3-morpholinobenzyl)pyridin-3-amine], the IC50 turned out to be 1.27 µM.
Then `COc1cc(CNc2cnc(-c3ccc(F)c(C)c3)c(-c3ccc4ncsc4c3)c2)ccc1OCCO` [compound 356, 2-(4-(((5-(Benzo[d]thiazol-6-yl)-6-(4-fluoro-3-methylphenyl)pyridin-3-yl)amino)methyl)-2-methoxyphenoxy)ethan-1-ol], with 0.965 µM; and `Cc1cc(-c2ncc(NCc3ccc(CN4CCOCC4)cc3)cc2-c2ccc3ncsc3c2)ccc1F` [compound 358, 5-(Benzo[d]thiazol-6-yl)-6-(4-fluoro-3-methylphenyl)-N-(4-(morpholinomethyl)benzyl)pyridin-3-amine], with 0.863 µM; and `Cc1cc(-c2ncc(NCc3ccc(S(N)(=O)=O)cc3)cc2-c2ccc3ncsc3c2)ccc1F` [compound 359, 4-(((5-(Benzo[d]thiazol-6-yl)-6-(4-fluoro-3-methylphenyl)pyridin-3-yl)amino)methyl)benzenesulfonamide], with 0.524 µM.
Then `Cc1cccc(-c2ncccc2-c2ccc3[nH]cnc(=O)c3c2)c1` [compound 361, 6-(2-(m-tolyl)pyridin-3-yl)quinazolin-4(1H)-one], with 0.23 µM; and `O=c1nc[nH]c2ccc(-c3cccnc3-c3cccc(C4CC4)c3)cc12` [compound 362, 6-(2-(3-Cyclopropylphenyl)pyridin-3-yl)quinazolin-4(1H)-one], with 0.105 µM; and `Cc1cc(-c2ncccc2-c2ccc3ncncc3c2)ccc1F` [compound 363, 6-(2-(4-Fluoro-3-methylphenyl)pyridin-3-yl)quinazoline], with 0.903 µM.
Then `Cc1cccc(-c2ncccc2-c2ccc3ncncc3c2)c1` [compound 364, 6-(2-(m-Tolyl)pyridin-3-yl)quinazoline], with 0.338 µM.
For `c1cc(-c2ncccc2-c2ccc3ncncc3c2)cc(C2CC2)c1` [compound 365, 6-(2-(3-Cyclopropylphenyl)pyridin-3-yl)quinazoline], the IC50 was found to be 0.165 µM.
The figure for `COc1cc(CNc2cnc(-c3ccc(F)c(C)c3)c(-c3ccc4ncsc4c3)c2)cc(OC)c1O` [compound 366, 4-(((5-(Benzo[d]thiazol-6-yl)-6-(4-fluoro-3-methylphenyl)pyridin-3-yl)amino)methyl)-2,6-dimethoxyphenol] is 0.226 µM; for `COc1cc(CNc2cnc(-c3ccc(F)c(C)c3)c(-c3ccc4ncsc4c3)c2)cc(O)c1OC` [compound 367, 5-(((5-(Benzo[d]thiazol-6-yl)-6-(4-fluoro-3-methylphenyl)pyridin-3-yl)amino)methyl)-2,3-dimethoxyphenol] it is 0.28 µM.
Regarding `Cc1cc(-c2ncc(NCc3ccc(O)c(O)c3)cc2-c2ccc3ncsc3c2)ccc1F` [compound 368, 4-(((5-(Benzo[d]thiazol-6-yl)-6-(4-fluoro-3-methylphenyl)pyridin-3-yl)amino)methyl)benzene-1,2-diol], the IC50 stood at 0.189 µM.
Consider `Cc1cc(-c2ncc(NCc3ccc(O)c(F)c3)cc2-c2ccc3ncsc3c2)ccc1F` [compound 369, 4-(((5-(Benzo[d]thiazol-6-yl)-6-(4-fluoro-3-methylphenyl)pyridin-3-yl)amino)methyl)-2-fluorophenol], for which the IC50 was 0.193 µM.
Take `Cc1cc(-c2ncc(NCc3ccc(O)c(C(F)(F)F)c3)cc2-c2ccc3ncsc3c2)ccc1F` [compound 370, 4-(((5-(Benzo[d]thiazol-6-yl)-6-(4-fluoro-3-methylphenyl)pyridin-3-yl)amino)methyl)-2-(trifluoromethyl)phenol]: the IC50 is 0.411 µM.
As to `Cc1cc(-c2ncc(NCc3ccc(O)c(OC(F)(F)F)c3)cc2-c2ccc3ncsc3c2)ccc1F` [compound 371, 4-(((5-(Benzo[d]thiazol-6-yl)-6-(4-fluoro-3-methylphenyl)pyridin-3-yl)amino)methyl)-2-(trifluoromethoxy)phenol], the IC50 was determined as 0.737 µM.
Then `Cc1cc(CNc2cnc(-c3ccc(F)c(C)c3)c(-c3ccc4ncsc4c3)c2)ccc1O` [compound 372, 4-(((5-(Benzo[d]thiazol-6-yl)-6-(4-fluoro-3-methylphenyl)pyridin-3-yl)amino)methyl)-2-methylphenol], with 0.339 µM; and `Cc1cc(-c2ncc(NCc3ccc(N4CCN(C)CC4)cc3)cc2-c2ccc3ncsc3c2)ccc1F` [compound 373, 5-(Benzo[d]thiazol-6-yl)-6-(4-fluoro-3-methylphenyl)-N-(4-(4-methylpiperazin-1-yl)benzyl)pyridin-3-amine], with 1.2 µM; and `Cc1cc(-c2ncc(NCc3ccc(N4CCC(O)CC4)cc3)cc2-c2ccc3ncsc3c2)ccc1F` [compound 374, 1-(4-(((5-(Benzo[d]thiazol-6-yl)-6-(4-fluoro-3-methylphenyl)pyridin-3-yl)amino)methyl)phenyl)piperidin-4-ol], with 0.495 µM.
In the case of `COc1ncnc2ccc(-c3cccnc3-c3ccc(F)c(C)c3)cc12` [compound 375, 6-(2-(4-Fluoro-3-methylphenyl)pyridin-3-yl)-4-methoxyquinazoline], the IC50 came out at 0.152 µM.
The figure for `COc1ncnc2ccc(-c3cccnc3-c3cccc(C)c3)cc12` [compound 376, 4-Methoxy-6-(2-(m-tolyl)pyridin-3-yl)quinazoline] is 0.276 µM; for `COc1ncnc2ccc(-c3cccnc3-c3cccc(C4CC4)c3)cc12` [compound 377, 6-(2-(3-Cyclopropylphenyl)pyridin-3-yl)-4-methoxyquinazoline] it is 0.172 µM.
The figure for `Cn1cnc2ccc(-c3cccnc3-c3cccc(O)c3)cc2c1=O` [compound 379, 6-(2-(3-Hydroxyphenyl)pyridin-3-yl)-3-methylquinazolin-4(3H)-one] is 0.395 µM; for `CC(=O)Nc1cccc(-c2ncccc2-c2ccc3ncn(C)c(=O)c3c2)c1` [compound 380, N-(3-(3-(3-Methyl-4-oxo-3,4-dihydroquinazolin-6-yl)pyridin-2-yl)phenyl)acetamide] it is 18.5 µM; for `Cn1cnc2ccc(-c3cccnc3-c3ccc(F)cc3)cc2c1=O` [compound 381, 6-(2-(4-Fluorophenyl)pyridin-3-yl)-3-methylquinazolin-4(3H)-one] it is 2.61 µM.
Then `Cn1cnc2ccc(-c3cccnc3-c3cccc4cccnc34)cc2c1=O` [compound 382, 3-Methyl-6-(2-(quinolin-8-yl)pyridin-3-yl)quinazolin-4(3H)-one], with 14.8 µM; and `Cc1cc(-c2ncccc2-c2ccc3nc(N)ncc3c2)ccc1F` [compound 383, 6-(2-(4-Fluoro-3-methylphenyl)pyridin-3-yl)quinazolin-2-amine], with 16.7 µM.
In the case of `Cc1cccc(-c2ncccc2-c2ccc3nc(N)ncc3c2)c1` [compound 384, 6-(2-(m-Tolyl)pyridin-3-yl)quinazolin-2-amine], the IC50 amounted to 7.79 µM.
The figure for `Cc1cccc(-c2ncccc2-c2ccc3ncnc(N4CCOCC4)c3c2)c1` [compound 386, 4-(6-(2-(m-Tolyl)pyridin-3-yl)quinazolin-4-yl)morpholine] is 2 µM.
The figure for `c1cc(-c2ncccc2-c2ccc3ncnc(N4CCOCC4)c3c2)cc(C2CC2)c1` [compound 387, 4-(6-(2-(3-Cyclopropylphenyl)pyridin-3-yl)quinazolin-4-yl)morpholine] is 1.28 µM; for `O=c1nc[nH]c2ccc(-c3cccnc3-c3ccc(F)c(Cl)c3)cc12` [compound 388, 6-(2-(3-Chloro-4-fluorophenyl)pyridin-3-yl)quinazolin-4(1H)-one] it is 0.547 µM; for `O=c1nc[nH]c2ccc(-c3cccnc3-c3cccc(Cl)c3)cc12` [compound 389, 6-(2-(3-Chlorophenyl)pyridin-3-yl)quinazolin-4(1H)-one] it is 0.187 µM.
`Cn1cnc2ccc(-c3cccnc3-c3ccc(F)c(Cl)c3)cc2c1=O` [compound 390, 6-(2-(3-Chloro-4-fluorophenyl)pyridin-3-yl)-3-methylquinazolin-4(3H)-one]: the IC50 came to 0.516 µM.
The figure for `Cn1cnc2ccc(-c3cccnc3-c3cccc(Cl)c3)cc2c1=O` [compound 391, 6-(2-(3-Chlorophenyl)pyridin-3-yl)-3-methylquinazolin-4(3H)-one] is 0.228 µM.
As for `Cc1cc(-c2ncccc2-c2ccc3ncnc(N)c3c2)ccc1F` [compound 392, 6-(2-(4-Fluoro-3-methylphenyl)pyridin-3-yl)quinazolin-4-amine], the IC50 was found to be 0.127 µM.
In the case of `Nc1ncnc2ccc(-c3cccnc3-c3cccc(Cl)c3)cc12` [compound 393, 6-(2-(3-Chlorophenyl)pyridin-3-yl)quinazolin-4-amine], the IC50 was determined as 0.07 µM.
Then `Nc1ncnc2ccc(-c3cccnc3-c3ccc(F)c(Cl)c3)cc12` [compound 394, 6-(2-(3-Chloro-4-fluorophenyl)pyridin-3-yl)quinazolin-4-amine], with 0.119 µM; and `COc1ncnc2ccc(-c3cccnc3-c3ccc(F)c(Cl)c3)cc12` [compound 395, 6-(2-(3-Chloro-4-fluorophenyl)pyridin-3-yl)-4-methoxyquinazoline], with 0.959 µM; and `Cc1cc(-c2ncccc2-c2ccc3cnc(N)nc3c2)ccc1F` [compound 396, 7-(2-(4-Fluoro-3-methylphenyl)pyridin-3-yl)quinazolin-2-amine], with 0.208 µM.
For the compound `CCN(CC)c1ncnc2ccc(-c3cccnc3-c3ccc(F)c(C)c3)cc12` [compound 397, N,N-Diethyl-6-(2-(4-fluoro-3-methylphenyl)pyridin-3-yl)quinazolin-4-amine], the IC50 was determined as 9.41 µM.
Then `CCN(CC)c1ncnc2ccc(-c3cccnc3-c3cccc(O)c3)cc12` [compound 399, 3-(3-(4-(Diethylamino)quinazolin-6-yl)pyridin-2-yl)phenol], with 4.65 µM; and `Cc1cc(-c2ncccc2-c2ccc3ncnc(NC(C)C)c3c2)ccc1F` [compound 400, 6-(2-(4-Fluoro-3-methylphenyl)pyridin-3-yl)-N-isopropylquinazolin-4-amine], with 5.81 µM.

Source of the values: patent US10858335B2 (Rigel Pharmaceuticals, Inc., priority 2014, dated 2020).
